{"source": "BindingDB's records for patent US12404261", "about": "(Novartis, 2025)"}
{"target": "Cyclic GMP-AMP synthase (Homo sapiens, UniProt Q8N884)", "sequence (Q8N884 whole entry)": "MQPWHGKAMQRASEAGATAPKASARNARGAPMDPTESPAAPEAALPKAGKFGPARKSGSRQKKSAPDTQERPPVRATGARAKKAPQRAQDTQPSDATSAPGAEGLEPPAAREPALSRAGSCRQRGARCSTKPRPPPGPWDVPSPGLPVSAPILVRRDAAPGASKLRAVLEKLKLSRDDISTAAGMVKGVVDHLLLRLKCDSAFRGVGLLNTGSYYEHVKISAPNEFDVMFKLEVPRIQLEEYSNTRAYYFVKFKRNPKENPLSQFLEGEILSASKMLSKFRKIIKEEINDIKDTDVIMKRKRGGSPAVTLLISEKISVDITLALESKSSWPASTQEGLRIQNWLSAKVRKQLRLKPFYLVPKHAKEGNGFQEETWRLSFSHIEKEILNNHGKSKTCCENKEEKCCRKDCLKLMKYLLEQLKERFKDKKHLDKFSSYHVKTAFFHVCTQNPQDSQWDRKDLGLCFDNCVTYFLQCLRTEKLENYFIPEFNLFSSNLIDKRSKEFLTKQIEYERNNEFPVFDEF", "test": "Biochemical Assay", "description": "The enzyme solution was transferred into the reagent buffer to give a final concentration of 30 nM. […] The reaction plates were then centrifuged at 1000 rpm for 1 minute and incubated at room temperature for 1 h.", "units": {"IC50": "nM"}}
{"smiles": "FC(F)(F)c1nnc(-c2[nH]c3cc(Cl)c(OC4CC4)cc3c2-n2ccnc2)[nH]1", "note": "[US12404261, Example 113]", "IC50": 861}
{"smiles": "COCC(C1=NNC(c2c(-n3ccnc3)c3cc(OC)c(Cl)c(F)c3n2C)N1)N1CCOCC1", "note": "(configuration not stated) [US12404261, Example 126]", "IC50": 411}
{"smiles": "COc1cc2c(-n3ccnc3)c(-c3nnc(C(=O)N(C)C)[nH]3)n(C)c2c(C#N)c1C#N", "note": "[US12404261, Example 120]", "IC50": 172}
{"smiles": "Cn1c(-c2nnc(C(F)(F)F)[nH]2)c(-n2ccnc2)c2cc(O)c(Cl)cc21", "note": "[US12404261, Example 115]", "IC50": 67}
{"smiles": "Cn1c(-c2nnc(C(F)(F)F)[nH]2)c(-c2cn[nH]c2)c2ccc(Cl)c(C#N)c21", "note": "[US12404261, Example 27]", "IC50": 137}
{"smiles": "COc1cc2c(-n3ccnc3)c(-c3nnc(C(CN(C)C)OC)[nH]3)n(C)c2c(F)c1Cl", "note": "(configuration not stated) [US12404261, Example 97]", "IC50": 104}
{"smiles": "COc1cc2c(-c3cn[nH]c3)c(-c3nnc(C(CN(C)C)OC)[nH]3)n(C)c2c(F)c1Cl", "note": "(configuration not stated) [US12404261, Example 75]", "IC50": 70}
